Where two headings read alike, the source gives them in different places.
Experiments:
[1] = molecular target: MCL-1/Bim (Homo sapiens (Human), UniProt Q07820); assay: MCL-1/Bim Binding AlphaLISA Assay; conditions: 6xHis-Mcl-1 (171-327) and biotinylated Bim peptide (51-76)
Experimental: MCL-1/Bim Binding AlphaLISA Assay.
Inhibition of the MCL-1 and Bim interaction was measured in the following AlphaLISA assay.
Recombinant human MCL-1 protein (C-terminal 6×His Tagged Mcl-1 containing residues 171-327) was generated at Gilead Sciences, Inc. (Foster City, Calif.). A biotinylated peptide derived from human Bim (residues 51-76) was purchased from CPC Scientific (Sunnyvale, Calif.). (CPC 834113). AlphaLISA anti-6His-acceptor beads (AL128R), AlphaScreen Streptavidin donor beads (6760002B), and Proxiplate-384 Plus (6008289) were purchased from PerkinElmer.
The AlphaLISA assay was performed in a 384-well Proxiplate in a total volume of 40 μL. The reaction mixture contained 0.0625 nM 6× His-Mcl-1 (171-327), 0.0625 nM biotinylated-Bim peptide, 10 μg/mL AlphaLISA anti-6×His-AlphaLISA acceptor beads, 40 μg/mL AlphaScreen streptavidin donor beads, and serially diluted test compounds in the binding buffer (20 mM Hepes, pH 7.5 (Teknova H1035); 150 mM NaCl (Promega V4221); 0.002% Brij 35 (Thermo Scientific 20150); 1 mM Dithiothreitol (DTT) Solution (Affymetrix 70726); 0.01% BSA (BioLabs B9000S)). 1,000× test compounds were pre-spotted onto 384-well Proxiplate (Labcyte Echo) by Echo 555 Liquid Handler (Labcyte Inc., San Jose, Calif.) followed by incubation of 5 μl Mcl-1(171-327) for 1 hour. Then 5 μL Bim (51-76) was added and incubated for 2 hours. Five μL AlphaLISA anti-6His-AlphaLISA acceptor beads were then added for 1 hour followed by addition of 5 μL AlphaScreen streptavidin donor beads for 1 hour. The reaction plates were then read on an Envision multimode reader (PerkinElmer) using AlphaScreen settings. […] Percent inhibition was calculated as shown below: % Inhibition=100%*(Well−Neg)/(Pos−Neg) Neg: negative control, DMSO Pos: positive control, no Mcl-1 protein, no biotinylated-Bim peptide

[2] = tested on: SKBR3 cells; assay: SKBR3 Cell Viability Assay; type: cell-based; conditions: CellTiter Glo, read-out: MCL-1 CV SKBR3 EC50
Experimental: SKBR3 Cell Viability Assay Materials
SKBR3 Cells (ATCC HTB-30) were obtained from ATCC (Manassas, Va.) and cultured in McCoy 5A's medium (ATCC 30-2007)+10% fetal bovine serum (SH30071.03, HyClone, Pittsburgh, Pa.) plus 1× Penicillin-Streptomycin L-glutamine (Corning 30-009-C1, Corning, N.Y.)).
The cell viability assay was conducted in a 384-well tissue culture plate (Grenier 781086, Monroe, N.C.) in a total volume of 70 μL. Test compounds were prepared in 1,000×, serially diluted, and pre-spotted into 384-well tissue culture plate by Echo 555 Liquid Handler (Labcyte Inc., San Jose, Calif.). Seventy μ1 of 6,000 SKBR3 cells were dispensed into each well of the plate and incubated at 37° C. with 5% CO2 for 72 hours. At the end of incubation, 2× CellTiter Glo (CTG) reagents (1 part buffer with 2 parts substrate) (Promega, Madison, Wis.) were prepared, and the plate and the reagent were equilibrated to room temperature for 30 minutes. CTG reagent was added to each plate by Biomek FX at 20 μL/well with 5 times pipetting and mixing to induce cell lysis. Luminescence was read by Envision multimode reader (PerkinElmer). […] Percent inhibition was calculated as followed: % Inhibition=100%*(Well−Neg)/(Pos−Neg) Neg, negative control, DMSO Pos, positive control, 10 μM Puromycin

Sequence of MCL-1/Bim (Q07820 171-327): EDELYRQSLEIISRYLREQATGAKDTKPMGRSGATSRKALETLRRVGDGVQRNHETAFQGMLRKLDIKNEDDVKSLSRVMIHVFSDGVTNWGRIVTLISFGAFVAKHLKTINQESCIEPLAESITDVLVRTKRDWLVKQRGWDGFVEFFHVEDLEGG

Structure (SMILES): CO[C@H]1/C=C/CCCS(=O)(NC(=O)CCc2ccnn2C)=NC(=O)c2ccc3c(c2)N(C[C@@H]2CC[C@H]21)C[C@@]1(CCCc2cc(Cl)ccc21)CO3 (single isomer, unassigned) [Example 48]
- IC50 [1]: 3.7 nM
- EC50 ([2]; Homo sapiens, SK-BR-3, 72 h): 8450 nM

Structure (SMILES): CO[C@H]1/C=C/CCCS(=O)(NC(=O)CCN(C)C)=NC(=O)c2ccc3c(c2)N(C[C@@H]2CC[C@H]21)C[C@@]1(CCCc2cc(Cl)ccc21)CO3 (some centres unmarked) [Example 15]
- IC50 [1]: 7.4 nM
- EC50 ([2]; Homo sapiens, SK-BR-3, 72 h): 7730 nM

Structure (SMILES): CC[C@H]1CN2C[C@@]3(CCCc4cc(Cl)ccc43)COc3ccc(cc32)C(=O)N=[S@](=O)(NC(=O)NC(C)C)CCC/C=C/[C@H](OC)[C@@H]1C [Example 19]
- IC50 [1]: 1.1 nM
- EC50 ([2]; Homo sapiens, SK-BR-3, 72 h): 1080 nM

Structure (SMILES): CC[C@H]1CN2C[C@@]3(CCCc4cc(Cl)ccc43)COc3ccc(cc32)C(=O)N=[S@](=O)(NC(=O)Cc2cnccn2)CCC/C=C/[C@H](OC)[C@@H]1C [Example 20]
- IC50 [1]: 0.5 nM
- EC50 ([2]; Homo sapiens, SK-BR-3, 72 h): 2060 nM

Structure (SMILES): CO[C@H]1/C=C/CCC[S@@](=O)(NC(=O)CCc2ccnn2C)=NC(=O)c2ccc3c(c2)N(C[C@@H]2CC[C@H]21)C[C@@]1(CCCc2cc(Cl)ccc21)CO3 [Example 22]
- IC50 [1]: 0.1 nM
- EC50 ([2]; 72 hours): 259 nM

Structure (SMILES): CC[C@H]1CN2C[C@@]3(CCCc4cc(Cl)ccc43)COc3ccc(cc32)C(=O)N=[S@](=O)(NC(C)=O)CCC/C=C/[C@H](OC)[C@@H]1C [Example 25]
- IC50 [1]: 0.6 nM
- EC50 ([2]; Homo sapiens, SK-BR-3, 72 h): 2010 nM

Structure (SMILES): CC[C@H]1CN2C[C@@]3(CCCc4cc(Cl)ccc43)COc3ccc(cc32)C(=O)N=[S@](=O)(NC(=O)CC(C)C)CCC/C=C/[C@H](OC)[C@@H]1C [Example 26]
- IC50 [1]: 1.8 nM
- EC50 ([2]; Homo sapiens, SK-BR-3, 72 h): 1690 nM

Structure (SMILES): CO[C@H]1/C=C/CCC[S@@](=O)(NC(=O)NCc2ccc(F)cc2)=NC(=O)c2ccc3c(c2)N(C[C@@H]2CC[C@H]21)C[C@@]1(CCCc2cc(Cl)ccc21)CO3 [Example 37]
- IC50 [1]: 1.4 nM
- EC50 ([2]; Homo sapiens, SK-BR-3, 72 h): 1610 nM

Structure (SMILES): CO[C@H]1/C=C/C[C@H](C)[C@@H](C)[S@](=O)(NC(=O)CCc2ccnn2C)=NC(=O)c2ccc3c(c2)N(C[C@@H]2CC[C@H]21)C[C@@]1(CCCc2cc(Cl)ccc21)CO3 [Example 50]
- IC50 [1]: 1.4 nM
- EC50 ([2]; Homo sapiens, SK-BR-3, 72 h): 3320 nM

Structure (SMILES): CO[C@H]1/C=C/CCC[S@@](=O)(NC(=O)CCc2ccn(C)n2)=NC(=O)c2ccc3c(c2)N(C[C@@H]2CC[C@H]21)C[C@@]1(CCCc2cc(Cl)ccc21)CO3 [Example 51]
- IC50 [1]: 0.1 nM
- EC50 ([2]; Homo sapiens, SK-BR-3, 72 h): 705 nM

Structure (SMILES): CO[C@H]1/C=C/C[C@H](C)[C@@H](C)[S@@](=O)(NC(=O)c2cnn(C3COC3)c2)=NC(=O)c2ccc3c(c2)N(C[C@@H]2CC[C@H]21)C[C@@]1(CCCc2cc(Cl)ccc21)CO3 [Example 152]
- IC50 [1]: 0.057 nM
- EC50 ([2]; Homo sapiens, SK-BR-3, 72 h): 55.7 nM

Structure (SMILES): CO[C@H]1/C=C/C[C@H](C)C[S@@](=O)(NC(=O)c2ccc3c(c2)COCC3)=NC(=O)c2ccc3c(c2)N(C[C@@H]2CC[C@H]21)C[C@@]1(CCCc2cc(Cl)ccc21)CO3 [Example 157]
- IC50 [1]: 0.234 nM
- EC50 ([2]; Homo sapiens, SK-BR-3, 72 h): 64.8 nM

Structure (SMILES): COC1Cc2cc(C(=O)N[S@@]3(=O)=NC(=O)c4ccc5c(c4)N(C[C@@H]4CC[C@H]4[C@@H](OC)/C=C/C[C@H](C)C3)C[C@@]3(CCCc4cc(Cl)ccc43)CO5)cn2C1 (some centres unmarked) [Example 205]
- IC50 [1]: 0.075 nM
- EC50 ([2]; Homo sapiens, SK-BR-3, 72 h): 58.9 nM

Structure (SMILES): CO[C@H]1/C=C/C[C@H](C)C[S@@](=O)(CC(=O)N[C@@H]2CC[C@@H](O)C2)=NC(=O)c2ccc3c(c2)N(C[C@@H]2CC[C@H]21)C[C@@]1(CCCc2cc(Cl)ccc21)CO3 [Example 222]
- IC50 [1]: 0.044 nM
- EC50 ([2]; Homo sapiens, SK-BR-3, 72 h): 80.1 nM

Structure (SMILES): COc1nn(C)cc1C(=O)N[S@@]1(=O)=NC(=O)c2ccc3c(c2)N(C[C@@H]2CC[C@H]2[C@@H](O)/C=C/C[C@H](C)[C@H]1C)C[C@@]1(CCCc2cc(Cl)ccc21)CO3 [Example 359]
- IC50 [1]: 0.038 nM
- EC50 ([2]; Homo sapiens, SK-BR-3, 72 h): 19 nM

Structure (SMILES): COc1nn(C)cc1C(=O)N[S@@]1(=O)=NC(=O)c2ccc3c(c2)N(C[C@@H]2CC[C@H]2[C@@H](OC)/C=C/[C@H](OC(=O)CCc2ccccc2)[C@H](C)C1)C[C@@]1(CCCc2cc(Cl)ccc21)CO3 [Example 377]
- IC50 [1]: 0.106 nM
- EC50 ([2]; 72 hours): 34 nM

Source: patent US10988451B2, “MCL-1 inhibitors” (Gilead Sciences, Inc., priority 2018, dated 2021)
